Test results as given in paper PMC10772524 (Haematologica, 2023).

How the values were obtained:
[1] = tested on: peripheral T-cell lymphoma (PTCL); settings: PTCL patients; cited from earlier work
patients = settings: cited from earlier work
[2] = tested on: patients with relapsed/refractory T-cell lymphoma; test: Safety and tolerability of tenalisib plus romidepsin; assay type: in vivo, human; settings: for Patients with three or more drug interruptions: during the combination treatment; for Patients with drug interruptions / Patients with dose reductions: overall, during combination treatment; for Patients with drug interruptions: PTCL and CTCL groups
[3] = Plasma pharmacokinetics of tenalisib, IN0385 and romidepsin; assay type: in vivo, human; settings: oral, all three cohorts
CYP3A4 = settings: also substrates for CYP3A4; ref not given; cited from earlier work

| SMILES | CR rate with monotherapy [1] [%] | Discontinuation rates due to adverse events, single agent studies (patients) | Patients with three or more drug interruptions [2] [%] | MTD/RP2D dose (recommended dose for dose expansion) in the combination ([2]; intravenous, days 1, 8, 15 of 28-day cycle, with tenalisib) [mg/m^2] | Patients with drug interruptions [2] [%] | Patients with dose reductions [2] [%] | Absorption [3] | CYP3A4 inhibition (CYP3A4) | MTD/RP2D dose (recommended dose for dose expansion) in the combination ([2]; orally twice daily (BID), with romidepsin) [mg] |
| --- | --- | --- | --- | --- | --- | --- | --- | --- | --- |
| C/C=C1\NC(=O)[C@H]2CSSCC/C=C/[C@H](CC(=O)N[C@H](C(C)C)C(=O)N2)OC(=O)[C@H](C(C)C)NC1=O [romidepsin, reference compound] | 14 | 19-28% | 24.2 | 14 | 63.6 | 33.3 | – | – | – |
| CC[C@H](Nc1ncnc2[nH]cnc12)c1oc2ccccc2c(=O)c1-c1cccc(F)c1 [tenalisib] | 20.0 | – | 12.1 | – | 60.6 | 27.3 | rapidly absorbed | moderate inhibitors | 800 |
